Drawing on ChEMBL document CHEMBL5608235, “Tricyclic Benzo[1,3]oxazinyloxazolidinones as Potent Antibacterial Agents against Drug-Resistant Pathogens” (J Med Chem, 2024), this text covers MIC for 8 molecules.

Experiment [1] relates to Mycobacterium tuberculosis. The experiment is described as follows: Antibacterial activity against isoniazid/streptomycin/rifampicin/ethambutol/rifabutin/para-axminosalicylate/ofloxacin resistant Mycobacterium tuberculosis 13946 assessed as inhibition of bacterial growth incubated for 7 days by alamar blue assay. Type of experiment: functional. As to conditions: Mycobacterium tuberculosis, 13946, 168 h; time 7 day.

Experiment [2] concerns Mycobacterium tuberculosis. Kind of experiment: Antibacterial activity against isoniazid/streptomycin/rifampicin/ethambutol/para-axminosalicylate/prothionamide/capreomycin resistant Mycobacterium tuberculosis 14862 assessed as inhibition of bacterial growth incubated for 7 days by alamar blue assay. Type of experiment: functional. As to conditions: Mycobacterium tuberculosis, 14862, 168 h; time 7 day.

SMILES strings stand for the structures. ≈ marks a conversion by molar mass, not a printed value.

As for `COC(=O)NC[C@@H]1OC(=O)N2Cc3cc(-c4ccc(-c5nnn(C)n5)nc4)c(F)cc3O[C@@H]12`, the values for the minimum inhibitory concentration (MIC) in experiment [1] and in experiment [2] were 0.39 µg/mL (≈ 0.856 µM) and 0.22 µg/mL (≈ 0.483 µM), respectively.

In the case of `CC(=O)NC[C@@H]1OC(=O)N2Cc3cc(-c4ccc(C#N)cc4)c(F)cc3O[C@@H]12`, the values for the MIC in experiment [1] and in experiment [2] were 0.11 µg/mL (≈ 0.288 µM) and 0.41 µg/mL (≈ 1.08 µM), respectively.

Regarding `CC(=O)NC[C@@H]1OC(=O)N2Cc3c(cc(F)c(-c4ccc(-c5nnn(C)n5)nc4)c3F)O[C@@H]12`, the MIC in experiment [1] amounted to 0.28 µg/mL (≈ 0.612 µM); in experiment [2], 0.33 µg/mL (≈ 0.721 µM).

Regarding `NNC(=O)c1ccncc1` [ISONIAZID], the minimal inhibitory concentration (MIC) is 4.78 µg/mL (≈ 34.9 µM) in experiment [1] and more than 10 µg/mL in experiment [2].

In the case of `CC(=O)NC[C@@H]1OC(=O)N2Cc3c(cc(F)c(-c4ccc(C#N)nc4)c3F)O[C@@H]12`, the MIC stood at 0.48 µg/mL (≈ 1.2 µM) in experiment [1] and 0.47 µg/mL (≈ 1.17 µM) in experiment [2].

In the case of `CO[C@H]1/C=C/O[C@@]2(C)Oc3c(C)c(O)c4c(O)c(c(/C=N/N5CCN(C)CC5)c(O)c4c3C2=O)NC(=O)/C(C)=C\C=C\[C@H](C)[C@H](O)[C@@H](C)[C@@H](O)[C@@H](C)[C@H](OC(C)=O)[C@@H]1C` [RIFAMPIN], the MIC in experiment [1] and in experiment [2] was more than 10 µg/mL each time.

`COC(=O)NC[C@@H]1OC(=O)N2Cc3cc(-c4ccc(C#N)nc4)c(F)cc3O[C@@H]12`: the minimal inhibitory concentration (MIC) in experiment [1] came out at 0.87 µg/mL (≈ 2.18 µM); in experiment [2], 0.6 µg/mL (≈ 1.51 µM).

As to `COC(=O)NC[C@@H]1OC(=O)N2Cc3cc(-c4ccc(C#N)cc4)c(F)cc3O[C@@H]12`, the MIC came out at 0.56 µg/mL (≈ 1.41 µM) in experiment [1] and 0.24 µg/mL (≈ 0.604 µM) in experiment [2].
